Key:
[1] = tested on: PDE1 partially purified from bovine heart; assay: PDE1 biochemical enzyme assay ([3H]cAMP hydrolysis); conditions: 100 μM; for % Inhibition of PDE1: Example 3
Method: In this example, a racemic mixture of flosequinan and the (+) and (−) enantiomers of flosequinan were subjected to biochemical enzyme assays to determine their respective percent inhibition of a variety of phosphodiesterases (PDE1-PDE6). The reaction conditions for each PDE assay were as follows. PDE1: PDE1 partially purified from bovine heart was used. A racemic mixture of flosequinan, and each enantiomer of flosequinan, all at a molar concentration of 100 μM, were independently incubated with 13 μg PDE1 enzyme, 1.0 μM [^3H]cAMP and CaCl2/calmodulin in Tris buffer pH 7.5 for 20 minutes at 30° C. The reaction was terminated by boiling for 2 minutes, and the resulting AMP was converted to adenosine by addition of 10 mg/ml snake venom nucleotidase and further incubation at 30° C. for 10 minutes. Unhydrolyzed cAMP was bound to AGI-X2 resin, and the remaining [^3H]adenosine in the aqueous phase was quantitated by scintillation counting.

[2] = target: T1, PDE6 partially purified from bovine retinal rod and activated by trypsin (Bos taurus, UniProt P11541+P23439); assay: PDE6 biochemical enzyme assay ([3H]cGMP hydrolysis); conditions: Example 1; versus Viagra 0.3 μM
T1 construct: from tissue; host or cells: bovine retinal rod
T1 sequence (P11541 2-856 limits assumed): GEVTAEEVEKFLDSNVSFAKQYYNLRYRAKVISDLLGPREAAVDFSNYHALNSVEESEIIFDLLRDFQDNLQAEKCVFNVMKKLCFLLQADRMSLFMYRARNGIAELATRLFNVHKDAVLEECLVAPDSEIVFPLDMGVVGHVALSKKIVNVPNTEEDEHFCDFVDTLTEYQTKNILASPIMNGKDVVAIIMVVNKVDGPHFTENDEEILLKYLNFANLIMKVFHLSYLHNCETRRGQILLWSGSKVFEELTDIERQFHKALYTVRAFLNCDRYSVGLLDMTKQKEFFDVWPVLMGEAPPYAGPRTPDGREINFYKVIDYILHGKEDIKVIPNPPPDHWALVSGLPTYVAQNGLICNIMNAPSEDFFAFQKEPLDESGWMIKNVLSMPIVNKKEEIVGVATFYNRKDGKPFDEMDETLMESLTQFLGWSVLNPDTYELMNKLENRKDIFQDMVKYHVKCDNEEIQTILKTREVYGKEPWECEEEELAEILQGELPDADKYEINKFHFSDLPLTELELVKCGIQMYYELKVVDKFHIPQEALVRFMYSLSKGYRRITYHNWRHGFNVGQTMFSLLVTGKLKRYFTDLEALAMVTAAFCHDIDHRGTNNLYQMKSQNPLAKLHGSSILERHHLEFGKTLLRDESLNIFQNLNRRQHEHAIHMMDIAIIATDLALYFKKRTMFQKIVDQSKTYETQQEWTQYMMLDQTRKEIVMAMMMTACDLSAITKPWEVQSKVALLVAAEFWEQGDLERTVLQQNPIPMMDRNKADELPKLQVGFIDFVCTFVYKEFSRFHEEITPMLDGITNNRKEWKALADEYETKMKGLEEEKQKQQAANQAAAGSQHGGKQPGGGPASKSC
T1 sequence (P23439 2-850 limits assumed): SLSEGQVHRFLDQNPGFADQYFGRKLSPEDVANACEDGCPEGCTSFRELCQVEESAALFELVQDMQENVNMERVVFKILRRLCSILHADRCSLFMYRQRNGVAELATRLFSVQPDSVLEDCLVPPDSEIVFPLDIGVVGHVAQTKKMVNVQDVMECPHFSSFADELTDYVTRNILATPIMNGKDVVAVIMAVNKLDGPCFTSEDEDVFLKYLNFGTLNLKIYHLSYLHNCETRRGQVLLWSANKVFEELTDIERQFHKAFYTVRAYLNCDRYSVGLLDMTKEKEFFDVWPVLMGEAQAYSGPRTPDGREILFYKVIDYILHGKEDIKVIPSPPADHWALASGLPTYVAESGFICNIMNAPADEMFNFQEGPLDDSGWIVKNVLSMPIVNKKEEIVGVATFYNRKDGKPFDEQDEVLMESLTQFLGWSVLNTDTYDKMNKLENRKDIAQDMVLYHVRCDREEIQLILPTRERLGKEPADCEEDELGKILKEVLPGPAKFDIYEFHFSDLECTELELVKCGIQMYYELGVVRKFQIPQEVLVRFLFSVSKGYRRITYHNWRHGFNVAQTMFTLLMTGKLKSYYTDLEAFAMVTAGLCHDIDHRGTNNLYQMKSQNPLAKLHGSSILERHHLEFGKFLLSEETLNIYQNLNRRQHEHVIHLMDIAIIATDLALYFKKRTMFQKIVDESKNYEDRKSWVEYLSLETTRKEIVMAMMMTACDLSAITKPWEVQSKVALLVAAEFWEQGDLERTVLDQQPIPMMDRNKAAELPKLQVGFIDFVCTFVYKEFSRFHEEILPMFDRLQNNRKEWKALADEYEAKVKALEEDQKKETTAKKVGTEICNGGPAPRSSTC
Method: PDE6 partially purified from bovine retinal rod and activated by trypsin was used. […] Each reaction was terminated by raising the temperature to 100° C. for 2 minutes. The resulting GMP was converted to guanosine by addition of 10 mg/ml snake venom nucleotidase and further incubated at 30° C. for 10 minutes. Unhydrolyzed cGMP was bound to AGI-X2 resin, and [^3H]guanosine remaining in the aqueous phase was quantitated by scintillation counting.
PDE6: PDE6 partially purified from bovine retinal rod and activated by trypsin was used. […] Each reaction was terminated by boiling for 2 minutes. The resulting GMP was converted to guanosine by addition of 10 mg/ml snake venom nucleotidase, and further incubated at 30° C. for 10 minutes. Unhydrolyzed cGMP was bound to AGI-X2 resin, and [^3H]guanosine remaining in the aqueous phase was quantitated by scintillation counting.

[3] = cited from earlier work
[4] = Solubility of flosequinan; type: physicochemical; conditions: water; organic solvents
Source text: Thus, while the present invention is not limited by the form of oral administration, aqueous and organic solution of flosequinan for oral administration is contemplated. Likewise, flosequinan can be associated with a solid pharmaceutical carrier for solid oral administration (i.e., in pill form).

[5] = following oral administration; cited from earlier work
[6] = target: T2, PDE3 partially purified from human platelets (Homo sapiens, UniProt Q14432); assay: PDE3 biochemical enzyme assay ([3H]cAMP hydrolysis); conditions: 100 μM
T2 construct: PDE3 partially purified from human platelets was used; from tissue; host or cells: human platelets
Method: PDE3: PDE3 partially purified from human platelets was used. A racemic mixture of flosequinan, and each enantiomer of flosequinan, all at a molar concentration of 100 μM, were independently incubated with 13 μg PDE3 enzyme and 1 μM cAMP containing 0.01 μM [^3H]cAMP in Tris buffer pH 7.5 for 20 minutes at 30° C. The reaction was terminated by boiling for 2 minutes, and the resulting AMP was converted to adenosine by addition of 10 mg/ml snake venom nucleotidase and further incubation at 30° C. for 10 minutes. Unhydrolyzed cAMP was bound to AGI-X2 resin, and the remaining [^3H]adenosine in the aqueous phase was quantitated by scintillation counting.

T2 sequence (Q14432 whole entry): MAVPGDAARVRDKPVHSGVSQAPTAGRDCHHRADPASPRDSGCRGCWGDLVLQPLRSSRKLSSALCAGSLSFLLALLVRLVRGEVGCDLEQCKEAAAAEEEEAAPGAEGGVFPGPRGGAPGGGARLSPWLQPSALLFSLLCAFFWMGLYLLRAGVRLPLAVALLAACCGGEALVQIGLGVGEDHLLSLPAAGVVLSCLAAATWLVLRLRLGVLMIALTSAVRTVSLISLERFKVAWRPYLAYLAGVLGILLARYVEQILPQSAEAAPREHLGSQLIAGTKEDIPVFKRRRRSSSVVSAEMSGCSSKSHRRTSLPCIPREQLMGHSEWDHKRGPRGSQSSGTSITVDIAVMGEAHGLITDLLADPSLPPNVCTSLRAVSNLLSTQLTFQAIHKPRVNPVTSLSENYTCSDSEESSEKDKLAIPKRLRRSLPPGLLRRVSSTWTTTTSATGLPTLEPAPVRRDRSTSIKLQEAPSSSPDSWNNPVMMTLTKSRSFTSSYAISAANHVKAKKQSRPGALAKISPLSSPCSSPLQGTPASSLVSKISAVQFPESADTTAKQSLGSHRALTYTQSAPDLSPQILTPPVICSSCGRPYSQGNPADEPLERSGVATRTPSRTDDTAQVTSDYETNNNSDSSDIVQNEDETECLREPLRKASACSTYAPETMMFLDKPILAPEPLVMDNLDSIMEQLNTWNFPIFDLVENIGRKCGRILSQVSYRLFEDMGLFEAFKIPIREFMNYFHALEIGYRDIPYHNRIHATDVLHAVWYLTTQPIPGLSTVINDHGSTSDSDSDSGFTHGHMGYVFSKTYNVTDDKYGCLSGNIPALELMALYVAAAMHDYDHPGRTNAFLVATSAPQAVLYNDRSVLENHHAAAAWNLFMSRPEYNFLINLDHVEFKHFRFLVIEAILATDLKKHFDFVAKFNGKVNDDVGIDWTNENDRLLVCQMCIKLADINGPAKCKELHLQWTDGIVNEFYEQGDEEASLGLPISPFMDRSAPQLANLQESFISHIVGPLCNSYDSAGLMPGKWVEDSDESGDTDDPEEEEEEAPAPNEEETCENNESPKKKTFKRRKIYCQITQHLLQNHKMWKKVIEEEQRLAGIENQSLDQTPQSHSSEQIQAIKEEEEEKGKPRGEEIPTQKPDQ

In the case of Cn1cc([S+](C)[O-])c(=O)c2ccc(F)cc21 (racemic) [Flosequinan, 7-fluoro-1-methyl-3-(methylsulphinyl)-4(1H)-quinolone], the “% Inhibition of PDE1” value [1] is listed as 31%, the “times more compound on a molar basis than Viagra for around 50% inhibition of PDE6” value [2] is listed as “more than 300 times” and the “time of peak plasma concentrations of flosequinan” value ([3]; following oral administration) is listed as 1 to 2 h. The “time of peak metabolite plasma levels” value ([3]; following oral dosage of flosequinan) was “about seven”, the mean absolute bioavailability ([3]; oral, single dose of fifty milligrams) was 72% and the solubility [4] was “water soluble and is soluble in many organic solvents”.
In the case of O=C1CCc2cc(OCCCCc3nnnn3C3CCCCC3)ccc2N1 [cilostazol, 6-[4-(1-cyclohexyl-1H-tetrazol-5-yl)butoxy]-3,4-dihydro-2(1H)-quinolinone], the “time of peak plasma concentrations of cilostazol” value [5] is listed as 2 to 4 h.
For Cn1cc([S+](C)[O-])c(=O)c2ccc(F)cc21 (single isomer, unassigned; (-)) [(−)-flosequinan], the “% Inhibition of PDE1” value [1] was 11%.
For Cn1cc([S@@+](C)[O-])c(=O)c2ccc(F)cc21 [(+)-flosequinan], the “PDE1 inhibitory activity compared with the (−) enantiomer of flosequinan” value [1] was “more PDE1 and PDE3 inhibitory activity”, the “% Inhibition of PDE1” value [1] was 28% and the “PDE3 inhibitory activity compared with the (−) enantiomer of flosequinan” value [6] was “more PDE1 and PDE3 inhibitory activity”.

Reference: US6451813B1, “Treatment of gastroparesis in certain patient groups” (R. T. Alamo Ventures I, LLC, priority 2001, dated 2002)
